These molecules were tested on IL-15 induced P-STAT5 in human PBMC (assay: PBMC IL-15 Induced P-STAT5). Conditions: human PBMC, IL-15 final 41 ng/mL; read-out: PBMC IL15_pSTAT5_IC50.
Type: cell-based
Method in brief: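 Flow cytometry gated on total lymphocytes measured STAT5 staining (Alexa Fluor 647 antibody, overnight, 4 °C) in fixed, methanol-permeabilised human PBMC. Cells had received compound for 15 min at 37 °C (0.2% DMSO final), followed by 41 ng/mL final human IL-15 for 15 min.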

**Q.** For `C=CC(=O)N1CC(CF)CC(Nc2ncnc3[nH]ccc23)C1` (mixture of isomers) [Example 102, Cis-racemic-1-[3-(fluoromethyl-5-(7H-pyrrolo[2,3-d]pyrimidin-4-ylamino)piperidin-1-yl]prop-2-en-1-one], which IC50 is on record?
**A.** Its IC50 is 237 nM.

**Q.** How did the IC50 turn out when `C=CC(=O)N1CC[C@@H](Nc2cnc3[nH]cc(C(=O)NCC)c3n2)[C@@H](C)C1` (racemic) [Example 37, Cis-racemic-2-{[(3S,4R)-1-acryloyl-3-methylpiperidin-4-yl]amino}-N-ethyl-5H-pyrrolo[2,3-b]pyrazine-7-carboxamide] was run?
**A.** Its IC50 is 676 nM.

**Q.** How did the IC50 turn out when `C=CC(=O)N1CC[C@H](Nc2cnc3[nH]cc(C(=O)NCC)c3n2)C[C@H]1C` (racemic) [Example 40, Trans-racemic-2-{[(2R,4S)-1-acryloyl-2-methylpiperidin-4-yl]amino}-N-ethyl-5H-pyrrolo[2,3-b]pyrazine-7-carboxamide] was run?
**A.** The IC50 was 134 nM.

**Q.** For `C=CC(=O)N1CC[C@@H](Oc2cnc3[nH]cc(C(=O)N[C@@H](C)COC)c3n2)C[C@@H]1C` (racemic) [Example 71, Trans-racemic-2-{[1-acryloyl-2-methylpiperidin-4-yl]oxy}-N-[(2S)-1-methoxypropan-2-yl]-5H-pyrrolo[2,3-b]pyrazine-7-carboxamide], which IC50 is on record?
**A.** The IC50 was 260 nM.

**Q.** For `C=CC(=O)N1CC[C@@H](Oc2cnc3[nH]cc(C(=O)NCC)c3n2)C[C@@H]1C` (racemic) [Example 77, Trans-racemic-2-{[1-acryloyl-2-methylpiperidin-4-yl]oxy}-N-ethyl-5H-pyrrolo[2,3-b]pyrazine-7-carboxamide], which IC50 is on record?
**A.** The IC50 was 561 nM.

**Q.** With `C=CC(=O)N1C[C@H](Nc2ncnc3[nH]ccc23)CC[C@@H]1CNC(C)=O` (racemic) [Example 88, rac-N-(((2R,5R)-5-((7H-pyrrolo[2,3-d]pyrimidin-4-yl)amino)-1-acryloylpiperidin-2-yl)methyl)acetamide] as the molecule, how does the IC50 read?
**A.** The IC50 was 3450 nM.

**Q.** Which IC50 does the source give for `C=CC(=O)N1C[C@@H](CC#N)C[C@@H](Nc2ncnc3[nH]ccc23)C1` (racemic) [Example 105, Cis-racemic-[1-acryloyl-5-(7H-pyrrolo[2,3-d]pyrimidin-4-ylamino)piperidin-3-yl]acetonitrile] here?
**A.** Its IC50 is 324 nM.

**Q.** For `C=CC(=O)N1CCC(Oc2cnc3[nH]cc(C(=O)NC4CCCC4)c3n2)CC1` (racemic) [Example 204, Racemic-2-[(1-acryloylpiperidin-4-yl)oxy]-N-cyclopentyl-5H-pyrrolo[2,3-b]pyrazine-7-carboxamide], which IC50 is on record?
**A.** Its IC50 is 130 nM.

**Q.** For `C=CC(=O)N1CCC(Oc2cnc3[nH]cc(C(=O)NC(C)C4CC4)c3n2)CC1` (racemic) [Example 220, Racemic-2-[(1-acryloylpiperidin-4-yl)oxy]-N-(1-cyclopropylethyl)-5H-pyrrolo[2,3-b]pyrazine-7-carboxamide], which IC50 is on record?
**A.** The IC50 was 100 nM.

**Q.** With `C=CC(=O)N1CC[C@H](Nc2cnc3[nH]cc(C(=O)NCC(C)CC(F)(F)F)c3n2)[C@H](OC)C1` (mixture of isomers) [Example 328, Racemic-2-{[(3R,4S)-1-acryloyl-3-methoxypiperidin-4-yl]amino}-N-(4,4,4-trifluoro-2-methylbutyl)-5H-pyrrolo[2,3-b]pyrazine-7-carboxamide] as the molecule, how does the IC50 read?
**A.** The IC50 was 143 nM.

**Q.** How did the IC50 turn out when `C=CC(=O)N1CCC[C@H](Nc2cnc3[nH]cc(C(=O)NCC)c3n2)C1` (single isomer, unassigned) [Example 36] was run?
**A.** The IC50 was 176 nM.

**Q.** For `C=CC(=O)N1CC[C@@H](Nc2cnc3[nH]cc(C(=O)NCC)c3n2)[C@@H](C)C1` (single isomer, unassigned) [Example 38], which IC50 is on record?
**A.** The IC50 was 205 nM.

**Q.** For `C=CC(=O)N1CC[C@H](Nc2cnc3[nH]cc(C(=O)NCC)c3n2)C[C@H]1C` (single isomer, unassigned) [Example 41], which IC50 is on record?
**A.** Its IC50 is 147 nM.

**Q.** Which IC50 does the source give for `C=CC(=O)N1CC[C@@H](Nc2cnc3[nH]cc(C(=O)NCC)c3n2)C[C@@H]1C` (single isomer, unassigned) [Example 42] here?
**A.** Its IC50 is 357 nM.

**Q.** For `C=CC(=O)N1CC[C@@H](Nc2cnc3[nH]cc(C(=O)NCC)c3n2)[C@H](C)C1` (single isomer, unassigned) [Example 44], which IC50 is on record?
**A.** The IC50 was 315 nM.

**Q.** With `C=CC(=O)N1CC[C@@H](Oc2cnc3[nH]cc(C(=O)NCC)c3n2)[C@H](C)C1` (single isomer, unassigned) [Example 47] as the molecule, how does the IC50 read?
**A.** The IC50 was 363 nM.

**Q.** How did the IC50 turn out when `C=CC(=O)N1CC[C@@H](Oc2cnc3[nH]cc(C(=O)N[C@@H](C)COC)c3n2)C[C@@H]1C` (single isomer, unassigned) [Example 73] was run?
**A.** The IC50 was 174 nM.

**Q.** Which IC50 does the source give for `C=CC(=O)N1CC[C@@H](Oc2cnc3[nH]cc(C(=O)NCC)c3n2)C[C@@H]1C` (single isomer, unassigned) [Example 79] here?
**A.** The IC50 was 264 nM.

**Q.** `C=CC(=O)N1C[C@@H](CF)C[C@@H](Nc2ncnc3[nH]ccc23)C1` (single isomer, unassigned) [Example 103] was tested. Which IC50 did it give?
**A.** The IC50 was 155 nM.

**Q.** With `C=CC(=O)N1C[C@@H](CC#N)C[C@@H](Nc2ncnc3[nH]ccc23)C1` (single isomer, unassigned) [Example 106] as the molecule, how does the IC50 read?
**A.** Its IC50 is 192 nM.

**Q.** For `C=CC(=O)N1CCC(N(C)c2cnc3[nH]cc(C(=O)NC(C)C)c3n2)CC1` [Example 64, 2-[(1-acryloylpiperidin-4-yl)(methyl)amino]-N-(propan-2-yl)-5H-pyrrolo[2,3-b]pyrazine-7-carboxamide], which IC50 is on record?
**A.** Its IC50 is 228 nM.

**Q.** For `C=CC(=O)N(C)C1CN(c2cnc3[nH]cc(C(=O)N[C@H](C)COC)c3n2)C1` [Example 86, 2-{3-[acryloyl(methyl)amino]azetidin-1-yl}-N-[(2R)-1-methoxypropan-2-yl]-5H-pyrrolo[2,3-b]pyrazine-7-carboxamide], which IC50 is on record?
**A.** Its IC50 is 260 nM.

**Q.** With `C=CC(=O)N1C[C@H](COCCC#N)C[C@H](Nc2ncnc3[nH]ccc23)C1` [Example 101, 3-{[(3R,5S)-1-Acryloyl-5-(7H-pyrrolo[2,3-d]pyrimidin-4-ylamino)piperidin-3-yl]methoxy}propanenitrile] as the molecule, how does the IC50 read?
**A.** The IC50 was 227 nM.

**Q.** Which IC50 does the source give for `C=CC(=O)N1C[C@H](CN2CC[C@H](C#N)C2)C[C@H](Nc2ncnc3[nH]ccc23)C1` [Example 108, (S)-1-(((3S,5S)-5-((7H-pyrrolo[2,3-d]pyrimidin-4-yl)amino)-1-acryloylpiperidin-3-yl)methyl)pyrrolidine-3-carbonitrile] here?
**A.** The IC50 was 3260 nM.

**Q.** `C=CC(=O)N1CCN(c2cnc3[nH]cc(C(=O)N[C@H]4CCO[C@H]4C)c3n2)CC1(C)C` [Example 166, 3-({[2-(4-acryloyl-3,3-dimethylpiperazin-1-yl)-5H-pyrrolo[2,3-b]pyrazin-7-yl]carbonyl}amino)-2,5-anhydro-1,3,4-trideoxy-L-threo-pentitol] was tested. Which IC50 did it give?
**A.** The IC50 was 168 nM.

**Q.** Which IC50 does the source give for `C=CC(=O)N1CCC(Nc2cnc3[nH]cc(C(=O)NCC4CC4)c3n2)CC1` [Example 172, 2-[(1-acryloylpiperidin-4-yl)amino]-N-(cyclopropylmethyl)-5H-pyrrolo[2,3-b]pyrazine-7-carboxamide] here?
**A.** Its IC50 is 81.3 nM.

**Q.** `C=CC(=O)N1CCC(Nc2cnc3[nH]cc(C(=O)NCc4cccc(F)c4)c3n2)CC1` [Example 176, 2-[(1-acryloylpiperidin-4-yl)amino]-N-(3-fluorobenzyl)-5H-pyrrolo[2,3-b]pyrazine-7-carboxamide] was tested. Which IC50 did it give?
**A.** Its IC50 is 24 nM.

**Q.** For `C=CC(=O)N1CCC(Nc2cnc3[nH]cc(C(=O)NCCC4CC4)c3n2)CC1` [Example 178, 2-[(1-acryloylpiperidin-4-yl)amino]-N-(2-cyclopropylethyl)-5H-pyrrolo[2,3-b]pyrazine-7-carboxamide], which IC50 is on record?
**A.** Its IC50 is 88.6 nM.

**Q.** How did the IC50 turn out when `C=CC(=O)N1CCC(Nc2cnc3[nH]cc(C(=O)NCc4ccccc4)c3n2)CC1` [Example 187, 2-[(1-acryloylpiperidin-4-yl)amino]-N-benzyl-5H-pyrrolo[2,3-b]pyrazine-7-carboxamide] was run?
**A.** Its IC50 is 54.7 nM.

**Q.** With `C=CC(=O)N1CCC(Nc2cnc3[nH]cc(C(=O)NCc4ccc(F)cc4)c3n2)CC1` [Example 188, 2-[(1-acryloylpiperidin-4-yl)amino]-N-(4-fluorobenzyl)-5H-pyrrolo[2,3-b]pyrazine-7-carboxamide] as the molecule, how does the IC50 read?
**A.** The IC50 was 88 nM.

**Q.** Which IC50 does the source give for `C=CC(=O)N1CCC(Nc2cnc3[nH]cc(C(=O)NCc4ccc(F)c(C#N)c4)c3n2)CC1` [Example 189, 2-[(1-acryloylpiperidin-4-yl)amino]-N-(3-cyano-4-fluorobenzyl)-5H-pyrrolo[2,3-b]pyrazine-7-carboxamide] here?
**A.** Its IC50 is 203 nM.

**Q.** `C=CC(=O)N1CCC(Nc2cnc3[nH]cc(C(=O)NCc4ccccc4F)c3n2)CC1` [Example 196, 2-[(1-acryloylpiperidin-4-yl)amino]-N-(2-fluorobenzyl)-5H-pyrrolo[2,3-b]pyrazine-7-carboxamide] was tested. Which IC50 did it give?
**A.** Its IC50 is 54.7 nM.

**Q.** Which IC50 does the source give for `C=CC(=O)N1CCC(Oc2cnc3[nH]cc(C(=O)NC45CC(C4)C5)c3n2)CC1` [Example 200, 2-[(1-acryloylpiperidin-4-yl)oxy]-N-(bicyclo[1.1.1]pent-1-yl)-5H-pyrrolo[2,3-b]pyrazine-7-carboxamide] here?
**A.** The IC50 was 149 nM.

**Q.** How did the IC50 turn out when `C=CC(=O)N1CCC(Oc2cnc3[nH]cc(C(=O)N[C@@H](C)CC)c3n2)CC1` [Example 205, 2-[(1-acryloylpiperidin-4-yl)oxy]-N-[(2S)-butan-2-yl]-5H-pyrrolo[2,3-b]pyrazine-7-carboxamide] was run?
**A.** The IC50 was 92.3 nM.

**Q.** For `C=CC(=O)N1CCC(Oc2cnc3[nH]cc(C(=O)NC(C)(C)CC)c3n2)CC1` [Example 209, 2-[(1-acryloylpiperidin-4-yl)oxy]-N-(2-methylbutan-2-yl)-5H-pyrrolo[2,3-b]pyrazine-7-carboxamide], which IC50 is on record?
**A.** Its IC50 is 206 nM.

**Q.** Which IC50 does the source give for `C=CC(=O)N1CCC(Oc2cnc3[nH]cc(C(=O)N[C@H](C)COC)c3n2)CC1` [Example 214, 2-[(1-acryloylpiperidin-4-yl)oxy]-N-[(2R)-1-methoxypropan-2-yl]-5H-pyrrolo[2,3-b]pyrazine-7-carboxamide] here?
**A.** The IC50 was 56.9 nM.

**Q.** How did the IC50 turn out when `C=CC(=O)N1CCC(Oc2cnc3[nH]cc(C(=O)NC4CCCC4(F)F)c3n2)CC1` (centres unmarked) [Example 219, 2-[(1-acryloylpiperidin-4-yl)oxy]-N-(2,2-difluorocyclopentyl)-5H-pyrrolo[2,3-b)pyrazine-7-carboxamide] was run?
**A.** The IC50 was 134 nM.

**Q.** For `C=CC(=O)N1CCC(Oc2cnc3[nH]cc(C(=O)N[C@H]4CC[C@@H](F)C4)c3n2)CC1` [Example 225, 2-[(1-acryloylpiperidin-4-yl)oxy]-N-[(1S,3R)-3-fluorocyclopentyl]-5H-pyrrolo[2,3-b]pyrazine-7-carboxamide], which IC50 is on record?
**A.** The IC50 was 170 nM.

From patent US10703756B2, “Pyrrolo[2,3-D]pyrimidinyl, pyrrolo[2,3-B]pyrazinyl, pyrrolo[2,3-B]pyridinyl acrylamides and epoxides thereof” (Pfizer Inc., priority 2015, dated 2020)
